The record followed here is ChEMBL document CHEMBL1137297, “Synthesis and pharmacological evaluation of novel octahydro-1H-pyrido[1,2-a]pyrazine as mu-opioid receptor antagonists” (J Med Chem, 2006).

SMILES strings stand for the structures.

Experiment [1] has as its target T1, Kappa-type opioid receptor (Homo sapiens, UniProt P41145). Put plainly: Inhibition of [3H]diprenorphine binding to human cloned kappa opioid receptor expressed in CHO cells at 10 uM. The class given is cell-based.
The target of experiment [2] is T2, Mu-type opioid receptor (Homo sapiens, UniProt P35372). Put plainly: Displacement of [3H]diprenorphine from human cloned mu opioid receptor expressed in CHO cells. The class given is cell-based. Background: In a radioligand displacement assay an active substance lowers the binding of a labelled ligand.
T2 sequence (P35372 whole entry): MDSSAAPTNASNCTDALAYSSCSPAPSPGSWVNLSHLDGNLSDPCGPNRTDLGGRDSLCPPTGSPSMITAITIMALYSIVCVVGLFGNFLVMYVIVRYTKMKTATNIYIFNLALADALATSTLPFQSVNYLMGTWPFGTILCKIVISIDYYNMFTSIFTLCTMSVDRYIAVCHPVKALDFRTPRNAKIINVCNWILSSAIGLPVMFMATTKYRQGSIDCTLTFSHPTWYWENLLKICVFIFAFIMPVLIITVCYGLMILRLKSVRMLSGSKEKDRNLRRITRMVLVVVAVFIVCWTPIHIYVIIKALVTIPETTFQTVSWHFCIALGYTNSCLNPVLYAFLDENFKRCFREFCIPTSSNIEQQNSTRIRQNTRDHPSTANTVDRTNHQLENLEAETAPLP
For experiment [3], the target named is T3, Delta-type opioid receptor (Homo sapiens, UniProt P41143). Put plainly: Inhibition of [3H]diprenorphine binding to human cloned delta opioid receptor expressed in CHO cells at 10 uM. The class given is cell-based.
T3 sequence (P41143 whole entry): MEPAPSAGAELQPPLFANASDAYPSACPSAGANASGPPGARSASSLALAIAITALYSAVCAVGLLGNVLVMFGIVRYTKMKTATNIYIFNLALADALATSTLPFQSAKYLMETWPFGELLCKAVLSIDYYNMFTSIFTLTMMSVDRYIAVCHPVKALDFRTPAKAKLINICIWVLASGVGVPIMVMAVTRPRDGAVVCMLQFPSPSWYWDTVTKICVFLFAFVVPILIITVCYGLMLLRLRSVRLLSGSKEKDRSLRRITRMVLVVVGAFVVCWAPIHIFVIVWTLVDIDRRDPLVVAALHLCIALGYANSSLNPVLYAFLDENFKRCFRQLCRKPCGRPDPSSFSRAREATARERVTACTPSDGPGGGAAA
Experiment [4] addresses T2, Mu-type opioid receptor. Put plainly: Antagonist activity assessed as inhibition of loperamide-stimulated [35S]GTPgammaS binding to human mu opioid receptor expressed in CHO cells. The class given is functional, cell-based. (Binding of GTPγS marks nucleotide exchange on a G protein.)
The target of experiment [5] is T3, Delta-type opioid receptor. Put plainly: Displacement of [3H]diprenorphine from human cloned delta opioid receptor expressed in CHO cells. The class given is cell-based.
Experiment [6] has as its target T2, Mu-type opioid receptor. Put plainly: Inhibition of [3H]diprenorphine binding to human cloned mu opioid receptor expressed in CHO cells at 10 uM. The class given is cell-based.
For experiment [7], the target named is T1, Kappa-type opioid receptor. Put plainly: Displacement of [3H]diprenorphine from human cloned kappa opioid receptor expressed in CHO cells. The class given is cell-based.
In experiment [8] the target is T1, Kappa-type opioid receptor. Put plainly: Antagonist activity assessed as inhibition of U50488-stimulated [35S]GTP-gamma-S binding to human kappa opioid receptor expressed in CHO cells. The class given is functional, cell-based.
Experiment [9] deals with T3, Delta-type opioid receptor. Put plainly: Antagonist activity assessed as inhibition of BW373U86-stimulated [35S]GTP-gamma-S binding to human delta opioid receptor expressed in CHO cells. The class given is functional, cell-based.

T1 sequence (P41145 whole entry): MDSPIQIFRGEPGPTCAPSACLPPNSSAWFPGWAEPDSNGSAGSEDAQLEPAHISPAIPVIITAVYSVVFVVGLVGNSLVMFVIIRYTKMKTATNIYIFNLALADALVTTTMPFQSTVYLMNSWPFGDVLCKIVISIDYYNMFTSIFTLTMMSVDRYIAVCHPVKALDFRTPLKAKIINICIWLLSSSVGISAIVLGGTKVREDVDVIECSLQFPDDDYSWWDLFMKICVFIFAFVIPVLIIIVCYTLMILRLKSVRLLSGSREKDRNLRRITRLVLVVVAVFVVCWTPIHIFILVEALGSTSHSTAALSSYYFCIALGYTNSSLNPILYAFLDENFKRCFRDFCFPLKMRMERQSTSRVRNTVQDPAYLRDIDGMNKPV

A word on the inhibition: it is the relative decrease from the control value, in per cent. As a reminder, the Ki is a dissociation constant, usually derived from enzyme kinetics or from competition with a known ligand. Low values mean tighter binding, high ones weaker binding. As for `CC(=O)N1CCN2C[C@H](C)[C@](C)(c3cccc(O)c3)C[C@@H]2C1`, the inhibition in experiment [1] was 36%; in experiment [3], 47%. The Ki on Mu-type opioid receptor [2] was 520 nM.
For orientation: IC50 means the midpoint of a concentration-inhibition curve. The molecule `C[C@H]1CN2CCN(C(=O)CCc3ccccc3)C[C@H]2C[C@@]1(C)c1cccc(O)c1` yielded an inhibition in experiment [1] of 65%. Moreover, the Ki was 160 nM at Mu-type opioid receptor [2] and 140 nM in experiment [5]. Besides, the IC50 on Mu-type opioid receptor [4] is 78 nM.
As to `C[C@H]1CN2CCN(C)C[C@H]2C[C@@]1(C)c1cccc(O)c1`, the inhibition on Mu-type opioid receptor [6] worked out at 69%; in experiment [1] it was 60%; in experiment [3] it was 11%.
With `C[C@H]1CN2CCNC[C@H]2C[C@@]1(C)c1cccc(O)c1`, the inhibition is 49% at Mu-type opioid receptor [6], 46% in experiment [1] and 35% in [3].
`C[C@H]1CN2CCN(Cc3ccc(N(C)C)cc3)C[C@H]2C[C@@]1(C)c1cccc(O)c1`: the inhibition in experiment [1] was found to be 34%; in [3], 26%. Further, the Ki at Mu-type opioid receptor [2] was 750 nM. The IC50 at Mu-type opioid receptor [4] was 190 nM.
On to `C[C@H]1CN2C[C@H](c3ccccc3)N(Cc3ccccc3)C[C@H]2C[C@@]1(C)c1ccccc1`, for which the inhibition in experiment [1] was 11%; in [3], 26%.
On to `COC(=O)c1cccc([C@]2(C)C[C@@H]3CN(Cc4ccccc4)[C@@H](c4ccccc4)CN3C[C@@H]2C)c1`, for which the inhibition came out at 24% at Mu-type opioid receptor [6], 6% in [1] and 39% in [3].
In experiment [1], `C[C@H]1CN2CCN(Cc3ccncc3)C[C@H]2C[C@@]1(C)c1cccc(O)c1` showed an inhibition of 67%. Moreover, the Ki on Mu-type opioid receptor [2] is 15 nM; in experiment [5] it was 1300 nM. On Mu-type opioid receptor [4], the IC50 was determined as 18 nM.
`Cc1ccccc1CN1CCN2C[C@H](C)[C@](C)(c3cccc(O)c3)C[C@@H]2C1`: the Ki in experiment [7] came out at 30 nM; on Mu-type opioid receptor [2], 0.98 nM; in experiment [5] it was 89 nM. The IC50 in experiment [8] was found to be 15 nM; at Mu-type opioid receptor [4] it was 1.8 nM; in [9], 62 nM.
Turning to `C[C@H]1CN2CCN(S(=O)(=O)c3ccccc3)C[C@H]2C[C@@]1(C)c1cccc(O)c1`, the inhibition in experiment [1] amounted to 34%. Further, the Ki was determined as 210 nM at Mu-type opioid receptor [2] and 1700 nM in experiment [5]. For the same molecule, the IC50 at Mu-type opioid receptor [4] turned out to be 140 nM.
In the case of `C[C@H]1CN2CCN(CC3CCCCC3)C[C@H]2C[C@@]1(C)c1cccc(O)c1`, the Ki turned out to be 84 nM in experiment [7], 1.1 nM at Mu-type opioid receptor [2] and 65 nM in experiment [5]. Also, the IC50 in experiment [8] came out at 36 nM; at Mu-type opioid receptor [4], 1.1 nM; in experiment [9] it was 85 nM.
As to `C[C@H]1CN2CCN(Cc3ccnc4ccccc34)C[C@H]2C[C@@]1(C)c1cccc(O)c1`, the inhibition in [1] stood at 55%; in experiment [3], 28%. For the same molecule, on Mu-type opioid receptor [2], the Ki amounted to 88 nM. Further, on Mu-type opioid receptor [4], the IC50 was 80 nM.
On to `C[C@H]1CN2C[C@H](c3ccccc3)N(Cc3ccccc3)C[C@H]2C[C@@]1(C)c1cccc(C(=O)O)c1`, for which the inhibition on Mu-type opioid receptor [6] is 44%; in [1], 9%. In addition, the Ki in experiment [5] stood at 2500 nM.
Turning to `C[C@H]1CN2CCN(S(C)(=O)=O)C[C@H]2C[C@@]1(C)c1cccc(O)c1`, the inhibition at Mu-type opioid receptor [6] stood at 45%; in experiment [1], 14%; in experiment [3], 5%.
